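Growth conditions: 96-well plates. Treatment: test compound, 48 hours, 5 concentrations. Analysis: linear interpolation between bracketing concentrations; unreached endpoints set to highest concentration. Abbreviation: GI50, concentration required for 50% inhibition of growth.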 Calls of active or inactive are those of the source. Cut-off read from the data, not from the text of the source: active = GI50 up to about 1.1 µM and inactive = higher.

The text below walks through data of ChEMBL document CHEMBL1201862, “PubChem BioAssay data set” (2004).

Common to all, as to experiment: NCI tumour cell line growth inhibition, 48 h
The subject of assay [1] is KM12.
Assay [2] has as its system UO-31.
The subject of assay [3] is Malme-3M.
Assay [4] relates to SK-MEL-28.
Assay [5] relates to HCC 2998.
Assay [6] relates to RPMI-8226.
In assay [7] the test system is UACC-62.
Assay [8] deals with OVCAR-3.
Assay [9] deals with OVCAR-5.
Assay [10] has as its system A549.
The test system of assay [11] is M14.
Assay [12] concerns SK-OV-3.
The test system of assay [13] is EKVX.
Assay [14] deals with NCI-H460.
The subject of assay [15] is HCT-15.
Assay [16] has as its system COLO 205.
In assay [17] the test system is MOLT-4.
Assay [18] has as its system SK-MEL-5.

In the case of `O=C1C=C(Nc2cc(Cl)ccc2Cl)c2ccccc2C1=O`, the GI50 in assay [1] was 23 µM (inactive); in assay [2] it was 23.9 µM (inactive); in [3], 19.4 µM (inactive); in [4], 38.6 µM (inactive); in [5], 27.5 µM (inactive); in [6], 20.9 µM (inactive). Further, the GI50 in assay [7] was 16.9 µM (inactive); in assay [8], 23 µM (inactive); in [9], 39 µM (inactive); in assay [10], 35.9 µM (inactive); in assay [11], 19.9 µM (inactive); in assay [12], 51.6 µM (inactive). In addition, the GI50 was > 100 µM (inactive) in assay [13], 25.9 µM (inactive) in assay [14], 26.5 µM in assay [15] and 36.1 µM (inactive) in assay [16].

In the case of `[O-][Cl+3]([O-])([O-])[O-].c1ccc(-c2[o+]c(-c3ccccc3)c(-c3ccccc3)c(-c3ccccc3)c2-c2ccccc2)cc1`, the GI50 in assay [2] is > 100 µM (inactive); in assay [3], > 100 µM (inactive); in assay [17] it was 44.7 µM (inactive); in assay [4], > 100 µM (inactive); in [5] it was > 100 µM (inactive); in assay [6] it was 24.9 µM (inactive). Further, the GI50 in assay [7], in assay [8], in assay [9], in [10], in [11] and in assay [18] was > 100 µM (inactive) in each case. For the same compound, the GI50 in [12] is > 100 µM (inactive); in assay [13], > 100 µM (inactive); in assay [14], > 100 µM (inactive); in assay [15], over 100 µM; in assay [16], > 100 µM (inactive).

On to `O=C(O)C1=C(Cl)c2ccccc2S1(=O)=O`, for which the GI50 in assay [1], in assay [2], in assay [3], in assay [17], in [4] and in assay [5] was > 100 µM (inactive) each time. For the same compound, the GI50 is > 100 µM (inactive) in assay [6]; > 100 µM (inactive) in [7]; > 10 µM (inactive) in assay [8]; > 100 µM (inactive) in [9]; > 100 µM (inactive) in assay [10]; > 100 µM (inactive) in assay [11]. Also, the GI50 is > 100 µM (inactive) in assay [18]; > 100 µM (inactive) in assay [12]; > 100 µM (inactive) in assay [13]; > 100 µM (inactive) in assay [14]; over 100 µM in [15]; > 100 µM (inactive) in assay [16].

Turning to `CC(=O)Oc1cc(OC(C)=O)c(OC(C)=O)c2c1CC1C(=O)C3(CCc4ccccc43)C(=O)C1C2` (stereo unspecified), the GI50 in assay [2] was 22.1 µM (inactive); in assay [3], 7.57 µM (inactive); in assay [4] it was 18.2 µM (inactive); in [5] it was 6.7 µM (inactive); in assay [6] it was 0.555 µM (active); in assay [7] it was 14.5 µM (inactive). Moreover, the GI50 in [8] was 4.82 µM (inactive); in assay [10], 19.5 µM (inactive); in [11] it was > 100 µM (inactive); in [12], 32.1 µM (inactive); in [13] it was 20 µM (inactive); in assay [14], 13.9 µM (inactive). In addition, the GI50 in assay [15] is 18.1 µM; in assay [16], 19.6 µM (inactive).

With `CN(Cc1ccccc1)C1(N(C)Cc2ccccc2)CC1`, the GI50 in assay [1], in assay [2], in assay [3], in assay [17], in [4] and in assay [5] was > 100 µM (inactive) in each case. Also, the GI50 in assay [7], in assay [8], in assay [9], in assay [10], in [11] and in assay [18] was > 100 µM (inactive) each time. Besides, the GI50 in assay [12] is > 100 µM (inactive); in assay [13] it was > 100 µM (inactive); in assay [14], > 100 µM (inactive); in assay [15], over 100 µM; in assay [16], > 100 µM (inactive).

For the compound `COc1ccc(/C(=N\NC(=O)C(N)=O)C(c2ccc(OC)cc2)C2(O)C(=O)Nc3c(Cl)cccc32)cc1` (stereo unspecified), the GI50 in [1] is > 100 µM (inactive); in assay [2] it was > 100 µM (inactive); in [3], > 100 µM (inactive); in [17], 82.4 µM (inactive); in assay [4], > 100 µM (inactive); in assay [5], > 100 µM (inactive). The GI50 in assay [6], in assay [7], in assay [8], in assay [9], in assay [10] and in assay [11] was > 100 µM (inactive) in each case. The GI50 in assay [18], in assay [13], in [14] and in [16] was > 100 µM (inactive) in each case.

With `CN(C(=O)c1ccc([N+](=O)[O-])cc1)c1ccccc1`, the GI50 in assay [1], in assay [2], in assay [3], in assay [17], in assay [4] and in assay [5] was > 100 µM (inactive) throughout. The GI50 in assay [6] was > 100 µM (inactive); in assay [7], > 10 µM (inactive); in assay [8], > 100 µM (inactive); in [9] it was > 100 µM (inactive); in assay [10], > 100 µM (inactive); in [11], > 100 µM (inactive). Besides, the GI50 in assay [12] is > 100 µM (inactive); in [13], > 100 µM (inactive); in assay [14], > 100 µM (inactive); in [15], over 100 µM; in [16] it was > 100 µM (inactive).

Turning to `COc1cc2c(c(O)c1C)C(=O)CC(c1ccccc1)O2` (stereo unspecified), the GI50 in [1] was 62.8 µM (inactive); in assay [2] it was 23 µM (inactive); in assay [3], 91.4 µM (inactive); in assay [17], 32.8 µM (inactive); in assay [4] it was > 100 µM (inactive); in assay [5], 79.8 µM (inactive). For the same compound, the GI50 is 47.9 µM (inactive) in assay [7]; 48.1 µM (inactive) in assay [8]; 39.1 µM (inactive) in assay [9]; 56.6 µM (inactive) in assay [10]; > 10 µM (inactive) in assay [11]; 18.2 µM (inactive) in assay [18]. Besides, the GI50 in [12] was 36.2 µM (inactive); in assay [13], 89.3 µM (inactive); in [14], > 10 µM (inactive); in assay [15] it was 66.4 µM.

Regarding `Cc1ccc(/C(=C/C=C(C#N)C#N)Sc2cc(Cl)ccc2Cl)cc1`, the GI50 was 4.78 µM (inactive) in assay [1]; 8.81 µM (inactive) in [2]; 16.9 µM (inactive) in assay [3]; 8.57 µM (inactive) in assay [4]; 3.85 µM (inactive) in assay [7]; 3.06 µM (inactive) in [8]. The GI50 was 5.02 µM (inactive) in [9]; 9.98 µM (inactive) in assay [10]; 4.48 µM (inactive) in assay [11]; 12.1 µM (inactive) in [18]; 8 µM (inactive) in assay [12]; 14 µM (inactive) in assay [13]. The GI50 is 4.31 µM (inactive) in assay [14], 3.06 µM in assay [15] and 4.86 µM (inactive) in [16].
